Laboratory results: patent publication US11078232B2, “Preparation and use of molecular site targeted and activated kinase inhibitor” (Yafei Shanghai Biology Medicine Science & Technology Co. …, priority 2017, dated 2021)

Columns and labels:
[1] = Tumor tissue distribution by autofluorescence after intravenous injection; format: in vivo; conditions: 10 μmol/kg intravenously, after 12 hours, FIG. 2
Description: Since DOX, Succinyl-AANL-DOX and S3 have autofluorescence, they can be detected by fluorescence microscopy in tumor tissues. 10 μmol/kg of DOX, Succinyl-AANL-DOX and S3 were injected intravenously. After 12 hours, the drug distribution image of the tumor tissue sections and the fluorescence intensity of the tumor tissue homogenate were measured. Nuclear staining was performed using DAPI.

aspartic endopeptidase = target: T1, aspartic endopeptidase (Homo sapiens, UniProt Q99538); test: Activation efficiency by aspartic endopeptidase (HPLC); format: biochemical; conditions: 1 mg/ml compound, enzyme 1 μmol/L, pH 6.0, 37° C., 2 hours; ratio of released product to original compound
T1 sequence (Q99538 18-323): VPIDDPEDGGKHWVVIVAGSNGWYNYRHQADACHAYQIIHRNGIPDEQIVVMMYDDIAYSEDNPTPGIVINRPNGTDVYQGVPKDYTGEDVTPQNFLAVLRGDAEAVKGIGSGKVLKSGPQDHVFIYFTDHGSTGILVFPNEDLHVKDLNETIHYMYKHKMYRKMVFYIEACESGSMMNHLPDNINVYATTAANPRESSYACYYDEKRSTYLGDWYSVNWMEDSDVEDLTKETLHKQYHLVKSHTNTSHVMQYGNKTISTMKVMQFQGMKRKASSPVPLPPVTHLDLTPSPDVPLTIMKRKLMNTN
Description: The sample compound and a portion of the control compound (herein, all of the control compounds can be synthesized by a method similar to that described in Examples 1-3) were uniformly diluted 10-fold to 1 mg/ml with the enzyme-digesting solution. In this experiment, 1 mg/ml of the sample compound was added to the aspartic endopeptidase (1 μmol/L, pH 6.0) at 37° C. for 2 hours. After the reaction, the enzyme digest was able to release the enzyme-digested product. The decrease in the compound and the increase in the product were examined by HPLC to compare the enzyme activation efficiency (the ratio of the product released by the enzyme cleavage to the original compound).

[2] = Solid stability, 60° C. for 10 days in the dark (HPLC); format: physicochemical; conditions: solid, 60° C., 10 days, dark; for Stability(%): content versus time 0
Description: The test was carried out by leaving it at 60° C. for 10 days in the dark. The ratio of the change in the content of the compound to the compound at time 0 was measured by HPLC, and the stability value (%) was calculated.

[3] = Drug content in tumor tissue homogenate (HPLC); format: in vivo; conditions: 10 micromoles per kilogram intravenous, tumor-bearing mice, FIG. 4
Description: Intravenous injection of 10 micromoles per kilogram of the drug into tumor-bearing mice, surgically obtained tumor tissue homogenate, and the drug content was determined by the HPLC method.

[4] = MTD (maximum tolerated dose) acute toxicity in mice; format: in vivo, mouse; conditions: female, mouse, in vivo; BALB/C mice, intravenous, observed 17 days
Description: (§1) Test purpose: to investigate the acute toxicity of highly activated compounds by targeted site molecules of the invention by measuring the MTD (maximum tolerated dose) experiment in mice.
(§2) The injections of each drug and the control drug were uniformly dissolved using water for injection, and diluted to the corresponding dose with physiological saline during the test.
(§3) Methods and results: […] BALB/C mice, weighing 19-21 g, were randomly divided into 10 groups, with 10 mice in each group. […] A control test of the saline group and the adriamycin group injection (commercially available, Beijing Yue kang) was carried out, and the injection volume of each mouse was 0.2 ml. […] On the D3, D5, and D14, blood samples were taken for whole blood count.

BALB/C mouse = test: as above; format: in vivo; conditions: intravenous; for Number of deaths: 10 mice per group; for Death dose: observed 17 days
Description: as §1, §2, §3

CT26 tumor cells [5] = test: CT26 immunotherapy model (Example 15); format: in vivo, mice; conditions: for Cure rate % / Number of cures: 10 in each group; for Tumor inhibition rate % (Day 42): IV ⅓ MTD once a week, 6 weeks; for Recurrence rate % (Week 7): cured mice re-inoculated with CT26 cells after 50 days
Description: (§4) 1) CT26 tumor cells were purchased from ATCC, and the cells were cultured using a 10% fetal bovine serum DMEM medium at 37° C., 5% CO2. The cells were passaged every 3 days and the cells were used within 15 generations.
(§5) 2) Tumor production: 10^6 live CT26 tumor cells were injected subcutaneously into the back of tumor-immunized […], and treatment was started when the tumor grew to about 0.3-0.4 cm. The tumor size (mm^3) of the mice was recorded and compared with the solvent control group. The tumor inhibition rate on day 42 was calculated in the solvent control group.
(§6) 3) Treatment process: IV injection is used, and the drug is used at a dose of ⅓ MTD once a week Immunosuppressive IV injection treatment once a week for a total of 6 weeks of treatment.
(§7) 4) The cure rate of 10 in each group was counted. After 50 days, the cured mice and wild groups were inoculated […] to detect recurrence.

D121 lung cancer cells = test: D121 lung cancer immunotherapy model; conditions: for Tumor inhibition rate/% (week 7) / CD8: CD45 (%): single agent; for Tumor inhibition rate/% (week 7): i.v. ⅙ MTD once a week for 4 weeks; for CD8: CD45 (%): tumor CD8+ T cells among CD45-positive cells
Description: (1) D121 lung cancer cells purchased from ATCC were cultured in DMEM medium containing 10% fetal bovine serum at 37° C. and 5% CO2, and the cells were digested with EDTA trypsin according to routine use, and passed two to three times a week for placement.
(2) Animals: C57 BALB/C mice, 6-8 weeks old, female, weighing about 18-22 g, purchased from Shanghai SLAC Laboratory Animal Co., Ltd.
3) Immunization: Mice were intraperitoneally injected with 100 μL of 5×10^5 D121 lung cancer cells that died by repeated freeze-thaw cycles, and immunized 3 times with an interval of 2 weeks.
4) Cell seeding: Collect the tumor cells in logarithmic growth phase, adjust the D121 cell concentration to (1×10^7/ml) with DMEM basal medium, 0.1 ml of the cell suspension was inoculated to the right side of each mouse subcutaneously with a 1 ml syringe. […] Tumor volume was observed and measured, and the average tumor volume reached 100-200 mm^3 about 7 days after inoculation, that is, tumor cell-bearing mice were grouped and administered. The immunized group in Table 9 was immunized with D121 lung cancer cells, and the D121 dead tumor cell immunized group was injected with physiological saline as a control.
The immunosuppressive regulatory point protein Anti-PD-L1 antibody was injected twice a week. A total of two weeks.
6) Experimental observation: During the whole experiment, the use and observation of experimental animals were carried out in accordance with the regulations of AAALAC. The experimental animals were observed daily after inoculation of tumor cells, and their onset and death were recorded. During the routine experiment, all experimental animals were monitored and recorded for behavior, feeding, water intake, weight change, hair shine and other abnormalities.
(7) Analysis of tumor CD8+ T cells (T lymphocyte subsets). Tumor tissues were ground and single cancer cells were isolated by filtration using 40 μm Nylon cell strainer, lysed twice with blood cell lysis buffer for 20 min, washed twice with 1% BSA-PBS buffer, centrifuged, and resuspended, and then the cells were counted again. 1×10^5 cells were incubated with leukocyte co-antigen CD45-PE and CD8-FITC-labeled antibody for 1 hour at room temperature in the dark, and then analyzed the proportion of T lymphocyte antigen (CD8) in leukocyte common antigen (CD45)-positive cells by flow cytometry.

[6] = Stability of sorafenib derivatives in buffer systems; format: physicochemical; conditions: weak acid, weak base and neutral buffer
Description: In order to solve this dilemma, the present invention performs allosteric synthesis and screening of the ortho-carboxamide group of the pyridine ring in the sorafenib molecule, and obtains a special compound which satisfies both the structure-activity relationship and the release effect. That is, compound a and compound b).

Heg2 cells = test: MTT cytotoxicity on Heg2 cells; format: cell-based; conditions: FIG. 3; for inhibition of cancer cells versus positive controls: cell viability experiments; for toxicity to Heg2 cells: 48 hours, pH 6.5, MTT
Description: Collect logarithmic Heg2 cells, adjust the cell suspension concentration, add 140 ul per well, and plate to adjust the density of the cells to be tested ˜5000/well; 5% CO2, incubate at 37° C. overnight, until the cell monolayer is covered with the bottom of the well (96) Condensate bottom plate), adding continuous concentration gradient to give different concentrations of compound S1, compound a and sorafenib, the drug set 9 concentration gradients, 10 ul per well, set 3 duplicate wells; 5% CO2, 37° C. PH6 0.5 incubation for 48 hours, observed under an inverted microscope; 20 μl of MTT solution (5 mg/ml, i.e. 0.5% MTT) was added to each well and incubation was continued for 4 h. The culture was terminated, and the culture solution in the well was carefully aspirated; 100 ul of dimethyl sulfoxide was added to each well, and shaken on a shaker at a low speed for 10 min to dissolve the crystals sufficiently. The absorbance of each well was measured at an enzyme-linked immunosorbent detector at OD490 nm. At the same time, zero adjustment holes (medium, MTT, dimethyl sulfoxide), control group (cell, same concentration of drug dissolution medium, medium, MTT, dimethyl sulfoxide) were set.

[7] = test system: Tumor-associated macrophages (M2 type); test: MTT toxicity on tumor-associated macrophages (M2 type); format: cell-based; conditions: 48 hours, pH 6.5, MTT, FIG. 7
Description: Tumor-associated macrophages (M2 type) induced by mononuclear bone marrow cells were collected by M-CSF (10 ng/ml), the cell suspension concentration was adjusted, 140 ul per well was added, and the cells were adjusted to a density of ˜3000 […]. 5% CO2, incubate at 37° C. overnight, until the cell monolayer is covered with the bottom of the well (96-well flat bottom plate), and then add a continuous concentration gradient to give different concentrations of the drug, the drug is set to 9 concentration gradients, 10 μl per well, set Three replicate wells; 5% CO2, incubated at 37° C., pH 6.5 for 48 hours, observed under an inverted microscope; 20 μl of MTT solution (5 mg/ml, i.e., 0.5% MTT) was added to each well and culture was continued for 4 h. The culture was terminated, and the culture solution in the well was carefully aspirated; 100 ul of dimethyl sulfoxide was added to each well, and shaken on a shaker at a low speed for 10 min to dissolve the crystals sufficiently. The absorbance of each well was measured at an enzyme-linked immunosorbent detector at OD490 nm. At the same time, zero adjustment holes (medium, MTT, dimethyl sulfoxide), control group (cell, same concentration of drug dissolution medium, medium, MTT, dimethyl sulfoxide) were set. The toxicity of the compound to tumor-associated macrophages (M2 type) was analyzed after the test. The inhibition of tumor-associated macrophages (M2 type) by different drugs was compared. […] Compound a, sorafenib, is also toxic because it is not a targeted activating drug.

CT26 tumor cells [8] = test: CT26 treatment model (Example 17); format: in vivo, mice; conditions: CT26 model as in Example 15
Description: as §4, §5, §6, §7
The CT26 immunotherapy model was constructed as in Example 15, and the pharmacodynamic and immunotherapeutic effects of the compounds S4-S6, S9-S12 and S15-S18 in the CT26 treatment model were tested.

Row | SMILES | Activation efficiencies (%) (aspartic endopeptidase) | Stability verdict (stable / unstable) [2] | Stability(%) [2] | drug distribution in the tumor [3] | MTD at 17 days [4] | Number of deaths (BALB/C mouse) | Death dose (BALB/C mouse) | Cure rate % (CT26 tumor cells [5]) | Number of cures (CT26 tumor cells [5]) | Tumor inhibition rate % (Day 42) (CT26 tumor cells [5]) | Recurrence rate % (Week 7) (CT26 tumor cells [5]) | Tumor inhibition rate/% (week 7) (D121 lung cancer cells) | CD8: CD45 (%) (D121 lung cancer cells; flow cytometry) | stability in buffer systems [6] | inhibition of cancer cells versus positive controls (Heg2 cells) | toxicity to / activation by tumor-associated macrophages (M2 type) [7] | toxicity to Heg2 cells (Heg2 cells) | also measured
1 | COc1cccc2c1C(=O)c1c(O)c3c(c(O)c1C2=O)C[C@](O)(C(=O)CO)CC3OC1C[C@H](NC(=O)OCc2ccc(NC(=O)C(CC(N)=O)NC(=O)C(C)NC(=O)C(C)NC(=O)[C@H](O)[C@H](O)[C@@H](O[C@@H]3O[C@H](CO)[C@H](O)[C@H](O)[C@H]3O)[C@H](O)CO)cc2)[C@H](O)[C@H](C)O1 (stereo partly drawn) [Compound S3, Lacto-AAN-PABC-Adriamycin] | 82.6% | stable | 99.8% | increasing the distribution in the tumor compared to C11 | 100 mg/kg | 1 | 110 mg/kg | 80% | 8 | 82.5% | 0% | 62.5% | 14.6% |  |  |  |  | tumor tissue distribution and penetration [1]: more tumor tissue distribution and penetration after intravenous injection than Succinyl-AANL-DOX
2 | CNCCNC(=O)c1cc(Oc2ccc(NC(=O)Nc3ccc(Cl)c(C(F)(F)F)c3)c(F)c2)ccn1 [compound b] |  |  |  |  |  |  |  |  |  |  |  |  |  | stable in weak acid, weak base and neutral buffer system, did not degrade | inhibited cancer cells better than the positive control drugs sorafenib and regorafenib |  |  | 
3 | CNC(=O)c1cc(Oc2ccc(NC(=O)Nc3ccc(Cl)c(C(F)(F)F)c3)cc2)ccn1 [Sorafenib, reference compound] |  |  |  |  | 11 mg/kg | 0 | 12 mg/kg |  |  |  |  | 24.5% | 6.4% |  |  | also toxic |  | CD8: CD45 (%) (CT26 tumor cells [8]): 7.2%; Number of animals cured (CT26 tumor cells [8]): 0; Tumor inhibition rate/% (at week 7) (CT26 tumor cells [8]): 15.7%; effect on T cells (D121 lung cancer cells; flow cytometry, discussion of Table 6): inhibited T cells
4 | CC(NC(=O)C(C)NC(=O)[C@H](O)[C@H](O)[C@@H](O[C@@H]1O[C@H](CO)[C@H](O)[C@H](O)[C@H]1O)[C@H](O)CO)C(=O)NC(CC(N)=O)C(=O)Nc1ccc(COC(=O)N(C)CCNC(=O)c2cc(Oc3ccc(NC(=O)Nc4ccc(Cl)c(C(F)(F)F)c4)cc3)ccn2)cc1 (stereo partly drawn) [Compound S1, Lacto-AAN-PABC-compound a] | 86.7% | stable | 96.7% | multiplied in the distribution of sorafenib in the tumor | 300 mg/kg | 1 | 350 mg/kg | 40% | 4 | 94.7% | 0% | 53.4% | 11.0% |  |  | more susceptible to phagocytosis and activation by macrophages than other methods of linker | non-toxic to normal cells | 
5 | CNCCNC(=O)c1cc(Oc2ccc(NC(=O)Nc3ccc(Cl)c(C(F)(F)F)c3)cc2)ccn1 [compound a] |  |  |  |  |  |  |  |  |  |  |  |  |  | stable in weak acid, weak base and neutral buffer system, did not degrade | inhibited cancer cells better than the positive control drugs sorafenib and regorafenib | also toxic | more toxic than sorafenib | 
